Measurements as given in publication PMC11288027, “Exploring novel microbial metabolites and drugs for inhibiting Clostridioides difficile” (mSphere, 2024).
Values joined by “and” are separate entries in the source; they are usually repeats but may differ in a detail not shown here. Equal values may be shown once. Read-outs that look alike come from different tables or passages of the source.

Tests used:
[1] = tested on: C. difficile ATCC BAA-1870; assay: MIC of active hits by broth microdilution; conditions: Clostridioides difficile, ATCCBAA1870, 48 h, C. difficile ATCC BAA-1870, 48 h anaerobic
[2] = tested on: C. difficile clinical isolates; assay: MIC against a panel of 20 C. difficile clinical isolates (broth microdilution); assay type: cell-based, Clostridioides difficile; conditions: Clostridioides difficile; for MIC50: concentration that inhibited 50% of the 20 C. difficile clinical isolates, read-out: MIC50; for MIC: read-out: minimum inhibitory concentration (MIC)
[3] = tested on: B. fragilis; assay: MIC against human gut microbiota; assay type: cell-based, Bacteroides fragilis; conditions: Bacteroides fragilis, anaerobic, read-out: minimum inhibitory concentration (MIC)
[4] = tested on: B. dorei; assay: MIC against human gut microbiota; assay type: cell-based, Bacteroides dorei; conditions: Phocaeicola dorei; B. dorei HM- 719, BHIS broth, anaerobic; read-out: minimum inhibitory concentration (MIC)
[5] = tested on: Bif. breve; assay: MIC against human gut microbiota; assay type: cell-based, Bifidobacterium breve; conditions: Bifidobacterium breve, ATCC15700; Bif. breve ATCC 15700, BHIS broth, anaerobic; read-out: minimum inhibitory concentration (MIC)
[6] = tested on: Bif. angulatum; assay: MIC against human gut microbiota; assay type: cell-based, Bifidobacterium angulatum; conditions: Bifidobacterium angulatum; Bif. angulatum HM- 1189, BHIS broth, anaerobic; read-out: minimum inhibitory concentration (MIC)
[7] = tested on: Bif. adolescentis; assay: MIC against human gut microbiota; assay type: cell-based, Bifidobacterium adolescentis; conditions: Bifidobacterium adolescentis; Bif. adolescentis HM- 633, BHIS broth, anaerobic; read-out: minimum inhibitory concentration (MIC)
[8] = tested on: Bif. longum; assay: MIC against human gut microbiota; assay type: cell-based, Bifidobacterium longum; conditions: Bifidobacterium longum, anaerobic, read-out: minimum inhibitory concentration (MIC)
[9] = tested on: E. faecium; assay: MIC against human gut microbiota; assay type: cell-based, Enterococcus faecium; conditions: Enterococcus faecium; E. faecium HM-202, TSB, aerobic; read-out: minimum inhibitory concentration (MIC)
[10] = tested on: E. fecalis; assay: MIC against human gut microbiota; assay type: cell-based, Enterococcus faecalis; conditions: Enterococcus faecalis; E. fecalis HM-970, TSB, aerobic; read-out: minimum inhibitory concentration (MIC)
[11] = tested on: L. casei; assay: MIC against human gut microbiota; assay type: cell-based; conditions: Lacticaseibacillus casei, ATCC334; L. casei ATCC 334, MRS broth, 5% CO2; read-out: minimum inhibitory concentration (MIC)
[12] = tested on: L. brevis; assay: MIC against human gut microbiota; assay type: cell-based, Lactobacillus brevis; conditions: Levilactobacillus brevis, ATCC14864; L. brevis ATCC-14864, MRS broth, 5% CO2; read-out: minimum inhibitory concentration (MIC)
[13] = tested on: L. rhamanosus; assay: MIC against human gut microbiota; assay type: cell-based, Lactobacillus rhamnoosus; conditions: Lactobacillus, ATCC53103; L. rhamanosus ATCC-53103, MRS broth, 5% CO2; read-out: minimum inhibitory concentration (MIC)
[14] = tested on: C. difficile ATCC BAA-1870; assay: Time-kill assay at 5 × MIC; conditions: C. difficile ATCC BAA-1870, ~10^6 CFU/mL, up to 24 h

CC(C)=CCC[C@](C)(O[C@@H]1O[C@H](CO)[C@@H](O)[C@H](O)[C@H]1O)[C@H]1CC[C@]2(C)[C@@H]1[C@H](O)C[C@@H]1[C@@]3(C)CC[C@H](O)C(C)(C)[C@@H]3CC[C@]12C [Ginsenoside C-K]
16 µM and 9.97 µg/mL: MIC [1]

CCc1c(Cl)c(O)c(Cl)c(O)c1C(=O)O[C@H]1[C@H](O)[C@H](OC)[C@H](OC/C2=C\C=C\C[C@H](O)/C(C)=C/[C@H](CC)[C@@H](O[C@@H]3OC(C)(C)[C@@H](OC(=O)C(C)C)[C@H](O)[C@@H]3O)/C(C)=C/C(C)=C/C[C@@H]([C@@H](C)O)OC2=O)O[C@@H]1C [Fidaxomicin]
64 µg/mL: MIC [12]
8 µg/mL: MIC [11] | MIC [13]
≤ 24 h: time to eliminate / clear C. difficile [14]
≤ 0.0078 µg/mL: MIC ([2]; ATCC630, C. difficile ATCC 630) | MIC ([2]; ATCCBAA1870, C. difficile ATCC BAA-1870 (Ribotype-027), purchased compounds, panel test) | MIC ([2]; C. difficile CD-13) | MIC ([2]; C. difficile CD-22) | MIC ([2]; C. difficile CD-24) | MIC ([2]; C. difficile CD-29 (Ribotype-027)) | MIC ([2]; C. difficile NR-49304) | MIC ([2]; C. difficile NR-49308) | MIC [1]
0.06 µg/mL: MIC ([2]; C. difficile CD-1 (Ribotype-027)) | MIC ([2]; C. difficile CD-6 (Ribotype-027)) | MIC ([2]; C. difficile CD-23) | MIC ([2]; C. difficile CD-26 (Ribotype-027)) | MIC90 ([2]; concentration that inhibited 90% of the 20 C. difficile clinical isolates, read-out: MIC90)
0.03 µg/mL: MIC ([2]; ATCC43255, C. difficile ATCC 43255) | MIC ([2]; C. difficile CD-10(Ribotype-027)) | MIC ([2]; C. difficile CD-12) | MIC ([2]; C. difficile NR-49302) | MIC ([2]; C. difficile NR-49319)
0.015 µg/mL: MIC50 ([2]; 48 h) | MIC ([2]; C. difficile CD-15) | MIC ([2]; C. difficile CD-28) | MIC ([2]; C. difficile CD-30) | MIC50 [2]
≤ 2 µg/mL: MIC [5] | MIC [6] | MIC [7] | MIC ([8]; Bif. longum HM- 845, BHIS broth) | MIC ([8]; Bif. longum HM- 846, BHIS broth) | MIC ([8]; Bif. longum HM- 847, BHIS broth) | MIC ([8]; Bif. longum HM- 848, BHIS broth) | MIC [9] | MIC [10]
> 256 µg/mL: MIC ([3]; B. fragilis HM- 709, BHIS broth) | MIC ([3]; B. fragilis HM- 718, BHIS broth) | MIC [4]
